This experiment concerns the target T1, Gonadotropin-releasing hormone receptor (Macaca fascicularis, UniProt G7P5Q7).
T1 sequence (G7P5Q7 whole entry): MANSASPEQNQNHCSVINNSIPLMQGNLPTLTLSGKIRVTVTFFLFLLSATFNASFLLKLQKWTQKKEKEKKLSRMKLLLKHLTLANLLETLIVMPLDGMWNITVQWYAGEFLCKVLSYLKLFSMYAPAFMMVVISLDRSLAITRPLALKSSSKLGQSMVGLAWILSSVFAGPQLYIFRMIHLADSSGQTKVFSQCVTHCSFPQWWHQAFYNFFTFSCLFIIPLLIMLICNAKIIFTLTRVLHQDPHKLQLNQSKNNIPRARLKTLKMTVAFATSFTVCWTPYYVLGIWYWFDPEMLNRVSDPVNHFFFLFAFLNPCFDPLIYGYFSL
As to the kind of experiment: 125I-Leuprorelin Binding Assay: The monkey and human membrane fractions prepared were diluted with the assay buffer to yield a 200 µg/ml dilution, each of which was then dispensed at 188 μl per tube. To a tube containing the cell membrane fraction of the CHO with monkey GnRH receptors expressed were added 2 μl of a solution of 20 mM compound in 60% DMSO and 10 μl of 38 nM 125I-leuprorelin. To a tube containing the cell membrane fraction of the CHO with human GnRH receptors expressed were added 2 μl of a solution of 2 mM compound in 60% DMSO and 10 μl of 38 nM 125I-leuprorelin. To determine maximum binding quantity, a reaction mixture containing 2 μl of 60% DMSO and 10 μl of 38 nM 125I-leuprorelin was prepared. To determine non-specific binding amount, a reaction mixture containing 2 μl of a solution of 100 μM leuprorelin in 60% DMSO and 10 μl of 38 nM 125I-leuprorelin was prepared.

Each structure is given as a SMILES string.

For orientation: IC50 means the concentration that gives 50% inhibition. For `CCOCCN(C)Cc1c(-c2ccc(NC(=O)NOC)cc2)sc2c1c(=O)n(-c1ccccn1)c(=O)n2Cc1c(F)cccc1F`, the IC50 came out at 3 nM.

The values are drawn from ChEMBL document CHEMBL3886721, “Thienopyrimidine compounds and use thereof” (2016).
